Publication PMC5785446 (Alcoholism, clinical and experimental research, 2018)

Legend:
[1] = molecular target: human MOP receptor (Homo sapiens, UniProt P35372); format: biochemical
[2] = tested on: wild-type mice; conditions: mouse, in vivo
[3] = tested on: C57BL/6J mice; conditions: mouse, in vivo

Chain of human MOP receptor (P35372 whole entry): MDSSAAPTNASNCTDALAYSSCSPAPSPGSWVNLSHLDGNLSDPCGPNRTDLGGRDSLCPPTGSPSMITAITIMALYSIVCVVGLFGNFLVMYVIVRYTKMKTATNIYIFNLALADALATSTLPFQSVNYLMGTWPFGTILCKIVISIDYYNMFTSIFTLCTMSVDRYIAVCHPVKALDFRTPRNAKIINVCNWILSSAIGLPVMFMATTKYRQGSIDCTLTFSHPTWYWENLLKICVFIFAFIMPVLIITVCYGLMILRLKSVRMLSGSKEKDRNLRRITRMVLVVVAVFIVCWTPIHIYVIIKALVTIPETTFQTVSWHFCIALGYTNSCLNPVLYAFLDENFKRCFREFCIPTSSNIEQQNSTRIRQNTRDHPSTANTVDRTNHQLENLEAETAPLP

Structure (SMILES)	[35S]GTPγS MOP % Stim [1] [%]	motor sedative effect on conditioning days [2]	effect on ethanol-induced CPP [3]
C[C@@H](NC(=O)[C@@H](N)Cc1ccc(O)cc1)C(=O)NCC(=O)N(C)[C@@H](Cc1ccccc1)C(=O)NCCO [DAMGO]	100		
CCCC(C)C1(CC)C(=O)NC(=O)NC1=O (stereo not drawn) [pentobarbital]		robust motor sedative effect	did not alter the rewarding action of ethanol
